Experimental data: PubChem BioAssay AID1963427 (Molecular Pharmacology Branch, DTP, NCI, 2024)
“And” between values parts separate entries of the source, which are not always exact repeats. Identical values can stand only once. One block for each molecule: values may come before it.

Tested on: 317291-083-R-J1-PDC complex spheroid growth
Test: Anticancer human tumor 317291-083-R-J1-PDC patient-derived soft tissue sarcoma cell line growth inhibition [Asc]
Details: for viability, T/C: stronger effect = lower value
Summary of the method: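 Tumor cells were grown as multicellular spheroids with stromal HUVEC and mesenchymal stem cells and treated singly or in combination. Concentrations fell in half-log steps from the clinical Cmax, or from 10 microM where none was known.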
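Note: compound exposure lasted seven days after spheroids formed for three days.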
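Throughout, for viability, T/C: 100% = DMSO vehicle control wells.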

IC50 (curve of compound): > 0.1 µM
Structure (SMILES): NC1CCC(NC2CC2c2ccccc2)CC1 (centres undefined)
viability, T/C (compound 0.000316 µM): 107% and 84.4% and 104%
viability, T/C (compound 0.001 µM): 97.8% and 80.7% and 96.1%
viability, T/C (compound 0.00316 µM): 84.8% and 99.5% and 109%
viability, T/C (compound 0.01 µM): 95.1% and 93.7% and 104%
viability, T/C (compound 0.0316 µM): 91.5% and 112% and 96.1%
viability, T/C (compound 0.1 µM): 97.7% and 80.4% and 90%

IC50 (curve of first compound, second compound 0.00316 µM): 9.72 µM
IC50 (curve of first compound, second compound 0.01 µM): > 10 µM
IC50 (curve of first compound, second compound 0.0316 µM): 5.56 µM
IC50 (curve of first compound, second compound 0.1 µM): 4.4 µM
IC50 (curve of first compound, second compound 0.316 µM): 1.09 µM
IC50 (curve of first compound, second compound 1 µM): < 0.0316 µM
Structure (SMILES): C=CC(=O)N1CCN(c2nc(=O)n(-c3c(C)ccnc3C(C)C)c3nc(-c4c(O)cccc4F)c(F)cc23)C(C)C1 (centres undefined) + CNC(C)C(=O)NC1CN(S(=O)(=O)c2cccc(S(=O)(=O)N3CCC4CCC(C(=O)NC(c5ccccc5)c5ccccc5)N4C(=O)C(NC(=O)C(C)NC)C3)c2)CCC2CCC(C(=O)NC(c3ccccc3)c3ccccc3)N2C1=O
viability, T/C (second compound 0.00316 µM, first compound 0.0316 µM): 96%
viability, T/C (second compound 0.00316 µM, first compound 0.1 µM): 100%
viability, T/C (second compound 0.00316 µM, first compound 0.316 µM): 85.2%
viability, T/C (second compound 0.00316 µM, first compound 1 µM): 91.3%
viability, T/C (second compound 0.00316 µM, first compound 3.16 µM): 93.5%
viability, T/C (second compound 0.00316 µM, first compound 10 µM): 48.9%
viability, T/C (second compound 0.01 µM, first compound 0.0316 µM): 92.9%
viability, T/C (second compound 0.01 µM, first compound 0.1 µM): 77.4%
viability, T/C (second compound 0.01 µM, first compound 0.316 µM): 83.3%
viability, T/C (second compound 0.01 µM, first compound 1 µM): 97.1%
viability, T/C (second compound 0.01 µM, first compound 3.16 µM): 62.5%
viability, T/C (second compound 0.01 µM, first compound 10 µM): 56.9%
viability, T/C (second compound 0.0316 µM, first compound 0.0316 µM): 93.1%
viability, T/C (second compound 0.0316 µM, first compound 0.1 µM): 70.1%
viability, T/C (second compound 0.0316 µM, first compound 0.316 µM): 77.4%
viability, T/C (second compound 0.0316 µM, first compound 1 µM): 73.7%
viability, T/C (second compound 0.0316 µM, first compound 3.16 µM): 71.7%
viability, T/C (second compound 0.0316 µM, first compound 10 µM): 28.8%
viability, T/C (second compound 0.1 µM, first compound 0.0316 µM): 68.7%
viability, T/C (second compound 0.1 µM, first compound 0.1 µM): 54.2%
viability, T/C (second compound 0.1 µM, first compound 0.316 µM): 59.9%
viability, T/C (second compound 0.1 µM, first compound 1 µM): 62.8%
viability, T/C (second compound 0.1 µM, first compound 3.16 µM): 57.6%
viability, T/C (second compound 0.1 µM, first compound 10 µM): 30.4%
viability, T/C (second compound 0.316 µM, first compound 0.0316 µM): 57.2%
viability, T/C (second compound 0.316 µM, first compound 0.1 µM): 42.9%
viability, T/C (second compound 0.316 µM, first compound 0.316 µM): 62.1%
viability, T/C (second compound 0.316 µM, first compound 1 µM): 48.9%
viability, T/C (second compound 0.316 µM, first compound 3.16 µM): 39%
viability, T/C (second compound 0.316 µM, first compound 10 µM): 23.5%
viability, T/C (second compound 1 µM, first compound 0.0316 µM): 49%
viability, T/C (second compound 1 µM, first compound 0.1 µM): 28.6%
viability, T/C (second compound 1 µM, first compound 0.316 µM): 32.2%
viability, T/C (second compound 1 µM, first compound 1 µM): 35%
viability, T/C (second compound 1 µM, first compound 3.16 µM): 30.6%
viability, T/C (second compound 1 µM, first compound 10 µM): 13.5%
